Target: T1, TAK1A-TAB fusion protein (Homo sapiens, UniProt O43318)
T1 construct: using 20 nM TAK1A-TAB fusion protein
T1 sequence (O43318 with tags, fused parts or gaps isoform O43318-2 limits assumed): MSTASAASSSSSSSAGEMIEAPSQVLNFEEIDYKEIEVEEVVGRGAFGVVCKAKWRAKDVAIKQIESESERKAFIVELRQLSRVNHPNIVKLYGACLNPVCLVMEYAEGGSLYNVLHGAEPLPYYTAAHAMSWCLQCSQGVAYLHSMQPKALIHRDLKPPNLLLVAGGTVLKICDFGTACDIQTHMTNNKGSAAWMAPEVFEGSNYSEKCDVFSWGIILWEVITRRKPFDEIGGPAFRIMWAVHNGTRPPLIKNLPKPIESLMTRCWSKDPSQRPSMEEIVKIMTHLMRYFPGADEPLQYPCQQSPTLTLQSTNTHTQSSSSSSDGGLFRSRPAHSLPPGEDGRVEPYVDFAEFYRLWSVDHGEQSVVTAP
Experiment: TAK-1 inhibition assay, radiometric filter binding assay
Type: biochemical
Settings: 50 μM ATP, 12 μM bovine myelin basic protein, 20 nM TAK1A-TAB fusion protein
Procedure: Compounds were screened for their ability to inhibit TAK1A kinase activity using a radiometric filter binding assay. Reactions were carried out in a solution containing Buffer A (100 mM HEPES (pH 7.5), 10 mM MgCl2), 25 mM NaCl, 2 mM DTT, and 1.5% DMSO. Final substrate concentrations in the assay were 50 μM ATP (a mixture of unlabeled ATP (Sigma Chemicals, St Louis, Mo.) and ^33P-labeled ATP (PerkinElmer Life Sciences, Boston, Mass.) for a final specific activity of 50 Ci/mol), and 12 μM bovine myelin basic protein (MBP, Vertex Pharmaceuticals, Cambridge, Mass.). Reactions were carried out at ambient temperature (˜20° C.) using 20 nM TAK1A-TAB fusion protein. Under these conditions the extent of reaction is linear with time for a period of 2 hours.
A test compound of the present invention (1 μL in DMSO) was combined with ATP and Buffer A in a final volume of 47 μL in a 96 well plate. Typically, a 6 point titration was conducted by preparing serial dilutions (from 10 mM compound stocks) with DMSO of the test compounds of the present invention in daughter plates, for final concentrations spanning 0.046 μM to 3.73 μM. The reaction was initiated by the addition of 20 μl of an enzyme stock solution consisting of TAK1A-TAB fusion (described by Sugita, T. et al. in Biochem. Biophys. Res. Comm. 2002, 297, 1277-1281), MBP, Buffer A, NaCl, and DTT. The reaction was allowed to proceed for two hours at ambient temperature, then quenched with an equal volume of 10 mM unlabeled ATP in 10% trichloroacetic acid. A 110 μL aliquot of the quenched reaction was transferred to a Multiscreen PH filter plate (Millipore, Billerica, Mass.) and allowed to incubate at ambient temperature overnight (typically 16-20 hours). Following incubation the filter plates were washed with 3×150 μL aliquots of 5% trichloroacetic acid using a modified Biotek Elx405 plate washer. A 70 μL aliquot of Microscint 20 scintillation fluid (PerkinElmer) was added to each well, and the plate was then sealed and read on a TopCount NXT microplate scintillation counter (PerkinElmer). The Ki values were determined from the rate data as a function of inhibitor concentration.

Row | SMILES | Ki [µM]
1 | CN(C)CC#Cc1cnc2[nH]cc(-c3oncc3-c3cccc(F)c3F)c2c1 [Compound 53, (3-{3-[4-(2,3-Difluoro-phenyl)-isoxazol-5-yl]-1H-pyrrolo[2,3-b]pyridin-5-yl}-prop-2-ynyl)-dimethyl-amine] | 0.2 to 1
2 | CN(C)c1cccc(-c2cnc3[nH]cc(-c4oncc4-c4cccc(F)c4F)c3c2)c1 [Compound 61, (3-{3-[4-(2,3-Difluoro-phenyl)-isoxazol-5-yl]-1H-pyrrolo[2,3-b]pyridin-5-yl}-phenyl)-dimethyl-amine] | 0.2 to 1
3 | Fc1cccc(-c2cnoc2-c2c[nH]c3ncc(C4CCNCC4)cc23)c1F [Compound 62, 3-[4-(2,3-Difluoro-phenyl)-isoxazol-5-yl]-5-piperidin-4-yl-1H-pyrrolo[2,3-b]pyridine] | 1 to 12.5
4 | Fc1ccc(-c2cnc3[nH]cc(-c4oncc4-c4cccc(F)c4F)c3c2)cn1 [Compound 69, 3-[4-(2,3-Difluoro-phenyl)-isoxazol-5-yl]-5-(6-fluoro-pyridin-3-yl)-1H-pyrrolo[2,3-b]pyridine] | 0.2 to 1
5 | CCN1CCC(c2cnc3[nH]cc(-c4oncc4-c4cccc(F)c4F)c3c2)CC1 [Compound 72, 3-[4-(2,3-Difluoro-phenyl)-isoxazol-5-yl]-5-(1-ethyl-piperidin-4-yl)-1H-pyrrolo[2,3-b]pyridine] | 1 to 12.5
6 | Fc1cccc(-c2cnoc2-c2c[nH]c3ncc(-c4cnc5[nH]ccc5c4)cc23)c1F [Compound 77, 3-[4-(2,3-Difluoro-phenyl)-isoxazol-5-yl]-1H,1′H-[5,5′]bi[pyrrolo[2,3-b]pyridinyl]] | 0.2 to 1
7 | COc1ccnc(-c2cnc3[nH]cc(-c4oncc4-c4cccc(F)c4F)c3c2)c1 [Compound 78, 3-[4-(2,3-Difluoro-phenyl)-isoxazol-5-yl]-5-(4-methoxy-pyridin-2-yl)-1H-pyrrolo[2,3-b]pyridine] | 0.2 to 1
8 | CN(C)C(=O)c1ccc(-c2cnc3[nH]cc(-c4oncc4-c4cccc(F)c4F)c3c2)nc1 [Compound 79, 6-{3-[4-(2,3-Difluoro-phenyl)-isoxazol-5-yl]-1H-pyrrolo [2,3-b]pyridin-5-yl}-N,N-dimethyl-nicotinamide] | 0.2 to 1
9 | CN(C)Cc1ccc(-c2cnc3[nH]cc(-c4oncc4-c4cccc(F)c4F)c3c2)nc1 [Compound 84, (6-{3-[4-(2,3-Difluoro-phenyl)-isoxazol-5-yl]-1H-pyrrolo[2,3-b]pyridin-5-yl}-pyridin-3-ylmethyl)-dimethyl-amine] | 0.2 to 1
10 | CS(=O)(=O)n1ccc2cc(-c3cnc4[nH]cc(-c5oncc5-c5cccc(F)c5F)c4c3)cnc21 [Compound 97, 3′-[4-(2,3-Difluoro-phenyl)-isoxazol-5-yl]-1-methanesulfonyl-1H, 1′H-[5,5′]bi[pyrrolo[2,3-b]pyridinyl]] | 0.2 to 1
11 | CN(C)c1ccc(-c2cnc3[nH]cc(-c4nncn4-c4cccc(F)c4F)c3c2)cc1 [Compound 106, (4-{3-[4-(2,3-Difluoro-phenyl)-4H-[1,2,4]triazol-3-yl]-1H-pyrrolo[2,3-b]pyridin-5-yl}-phenyl)-dimethyl-amine] | 0.2 to 1
12 | Fc1cccc(-n2cnnc2-c2c[nH]c3ncc(-c4ccc(CN5CCOCC5)cc4)cc23)c1F [Compound 109, 3-[4-(2,3-Difluoro-phenyl)-4H-[1,2,4]triazol-3-yl]-5-(4-morpholin-4-ylmethyl-phenyl)-1H-pyrrolo[2,3-b]pyridine] | 0.2 to 1
13 | CN1CCN(c2ccc(-c3cnc4[nH]cc(-c5nncn5-c5cccc(F)c5F)c4c3)cc2)CC1 [Compound 110, 3-[4-(2,3-Difluoro-phenyl)-4H-[1,2,4]triazol-3-yl]-5-[4-(4-methyl-piperazin-1-yl)-phenyl]-1H-pyrrolo[2,3-b]pyridine] | < 0.2
14 | CN1CCN(c2ccc(-c3cnc4[nH]cc(-c5nncn5-c5cccc(F)c5F)c4c3)cn2)CC1 [Compound 112] | 1 to 12.5
15 | Fc1cccc(-n2cnnc2-c2c[nH]c3ncc(-c4cccnc4)cc23)c1F [Compound 113, 3-[4-(2,3-Difluoro-phenyl)-4H-[1,2,4]triazol-3-yl]-5-pyridin-3-yl-1H-pyrrolo[2,3-b]pyridine] | 1 to 12.5
16 | Fc1cccc(-n2cnnc2-c2c[nH]c3ncc(-c4ccncc4)cc23)c1F [Compound 114, 3-[4-(2,3-Difluoro-phenyl)-4H-[1,2,4]triazol-3-yl]-5-pyridin-4-yl-1H-pyrrolo[2,3-b]pyridine] | 1 to 12.5
17 | Fc1cccc(-n2cnnc2-c2c[nH]c3ncc(-c4ccc(N5CCC[C@H]5CN5CCCC5)nc4)cc23)c1F [Compound 115, 3-[4-(2,3-Difluoro-phenyl)-4H-[1,2,4]triazol-3-yl]-5-[6-(2-pyrrolidin-1-ylmethyl-pyrrolidin-1-yl)-pyridin-3-yl]-1H-pyrrolo[2,3-b]pyridine] | 0.2 to 1
18 | OC1CCN(c2ccc(-c3cnc4[nH]cc(-c5nncn5-c5cccc(F)c5F)c4c3)cn2)CC1 [Compound 116, 5′-{3-[4-(2,3-Difluoro-phenyl)-4H-[1,2,4]triazol-3-yl]-1H-pyrrolo[2,3-b]pyridin-5-yl}-3,4,5,6-tetrahydro-2H-[1,2′]bi-pyridinyl-4-ol] | 0.2 to 1
19 | CN1CCCN(c2ccc(-c3cnc4[nH]cc(-c5nncn5-c5cccc(F)c5F)c4c3)cn2)CC1 [Compound 117, 3-[4-(2,3-Difluoro-phenyl)-4H-[1,2,4]triazol-3-yl]-5-[6-(4-methyl-[1,4]diazepan-1-yl)-pyridin-3-yl]-1H-pyrrolo [2,3-b]-pyridine] | 0.2 to 1
20 | Fc1cccc(-n2cnnc2-c2c[nH]c3ncc(-c4ccc(N5CCCC5)nc4)cc23)c1F [Compound 118, 3-[4-(2,3-Difluoro-phenyl)-4H-[1,2,4]triazol-3-yl]-5-(6-pyrrolidin-1-yl-pyridin-3-yl)-1H-pyrrolo[2,3-b]pyridine] | 0.2 to 1
21 | CN(C)CCNc1ccc(-c2cnc3[nH]cc(-c4nncn4-c4cccc(F)c4F)c3c2)cn1 [Compound 119, N′-(5-{3-[4-(2,3-Difluoro-phenyl)-4H-[1,2,4]triazol-3-yl]-1H-pyrrolo[2,3-b]pyridin-5-yl}-pyridin-2-yl)-N,N-dimethyl-ethane-1,2-diamine] | 1 to 12.5
22 | Fc1cccc(-c2cnoc2-c2c[nH]c3ncc(/C=C/n4cncn4)cc23)c1F [Compound 133, 3-[4-(2,3-Difluoro-phenyl)-isoxazol-5-yl]-5-(2-[1,2,4]triazol-1-yl-vinyl)-1H-pyrrolo[2,3-b]pyridine] | 0.2 to 1
23 | Cc1noc(-c2c[nH]c3ncc(-c4ccc(N5CCN(C)CC5)cc4)cc23)c1-c1cccc(F)c1F [Compound 135, 3-[4-(2,3-Difluoro-phenyl)-3-methyl-isoxazol-5-yl]-5-[4-(4-methyl-piperazin-1-yl)-phenyl]-1H-pyrrolo[2,3-b]pyridine] | < 0.2
24 | Fc1cccc(-c2cnoc2-c2c[nH]c3ncc(C4=CCC(NCc5ccccc5)CC4)cc23)c1F (stereo not shown) [Compound 136, Benzyl-(4-{3-[4-(2,3-difluoro-phenyl)-isoxazol-5-yl]-1H-pyrrolo[2,3-b]pyridin-5-yl}-cyclohex-3-enyl)-amine] | < 0.2
25 | NC1CC=C(c2cnc3[nH]cc(-c4oncc4-c4cccc(F)c4F)c3c2)CC1 (stereo not shown) [Compound 137, 4-{3-[4-(2,3-Difluoro-phenyl)-isoxazol-5-yl]-1H-pyrrolo [2,3-b]pyridin-5-yl}-cyclohex-3-enylamine] | < 0.2
26 | CN(C)C1CC=C(c2cnc3[nH]cc(-c4oncc4-c4cccc(F)c4F)c3c2)CC1 (stereo not shown) [Compound 138, (4-{3-[4-(2,3-Difluoro-phenyl)-isoxazol-5-yl]-1H-pyrrolo[2,3-b]pyridin-5-yl}-cyclohex-3-enyl)-dimethyl-amine] | < 0.2
27 | Fc1cccc(-c2cnoc2-c2c[nH]c3ncc(C4=CCC(N5CCOCC5)CC4)cc23)c1F (stereo not shown) [Compound 139, 3-[4-(2,3-Difluoro-phenyl)-isoxazol-5-yl]-5-(4-morpholin-4-yl-cyclohex-1-enyl)-1H-pyrrolo[2,3-b]pyridine] | 0.2 to 1
28 | CS(=O)(=O)NC1CC=C(c2cnc3[nH]cc(-c4oncc4-c4cccc(F)c4F)c3c2)CC1 (stereo not shown) [Compound 140, N-(4-{3-[4-(2,3-Difluoro-phenyl)-isoxazol-5-yl]-1H-pyrrolo[2,3-b]pyridin-5-yl}-cyclohex-3-enyl)-methanesulfonamide] | < 0.2

From US7446199B2, “Compositions useful as inhibitors of protein kinases” (Vertex Pharmaceuticals Incorporated, priority 2003, dated 2008)
